Drawing on patent US6277831A, “1,4-benzothiazepine-1,1-dioxide derivatives substituted by sugar residues, process for their preparation, pharmaceuticals comprising these compounds, and their use” (Aventis Pharma Deutschland GmbH, priority 1999, dated 2001), this text covers EC50 for eight molecules.

SMILES strings stand for the structures.

This test concerns bile acid transport in the ileum. The test is described as follows: Ileum perfusion test: inhibition of bile acid (3H-taurocholic acid) transport in the ileum of anesthetized rats. Conditions: rat ileum perfusion; 3 mM taurocholic acid, pH 7.4, 37° C.; 3H-TCA in bile at 80-90 min vs 30-40 min; diastereomeric mixtures unless indicated otherwise. Format: in vivo, Male Wistar rats. The protocol:
The biological testing of compounds according to the invention was carried out by means of a perfusion test. This test investigates the action of the compounds on the bile acid transport in the ileum. The diastereomeric mixtures of the compounds were tested unless indicated otherwise.
The Perfusion Test was Carried Out as Described Below:
Male Wistar rats (weight range 250-350 g) were anesthetized with urethane (1.5 g/kg i.p.) and the bile duct was cannulated with a polyethylene tube. Eight centimeters proximal to the ileocecal flap, an incision was made into the ileum and a silicone adapter for tubes was sewn in. A second incision with implantation of a corresponding silicone adapter was made in the cecum. Silicone tubes were attached to the adapter in order to perfuse the ileum in an orthograde and open manner (nonrecirculating) with perfusion buffer at a perfusion rate of 1 ml/min.
The perfusion tubes were filled with perfusion buffer (137 mM NaCl, 0.9 mM CaCl2, 0.51 mM MgCl2, 8.1 mM Na2 HPO4, 2.7 mM KCl, 1.47 mM KH2 PO4) (pH 7.4), 1% (v/v) ethanol, and 1% DMSO. The perfusion buffer contained the test compounds in concentrations as indicated, or the vehicle alone. The buffer was preheated to 37° C. The perfusion buffer contained 3 mM taurocholic acid (TCA), which in turn was labeled with 1000 dpm/μl of ^3 H TCA as a marker.
Study Design and Evaluation of the Results
An experimental batch was chosen which allowed the determination of the inhibition of bile acid transport in the individual animal. The bile was collected at 10 min intervals over a period of 90 min (in the case of a following wash-out phase for testing the reversibility over a period of up to 160 min). The perfusion of the vehicle-containing buffer solution over a period of 40 min (pre-test substance) was followed by a perfusion with perfusion buffer which contained the test compound in the concentration to be tested (to 90 min).
For the calculation of the percentage inhibition by the test compound, the dpms (disintegrations per min of ^3 H-TCA) in the bile from 80-90 min (end of the perfusion with the test substance) were related to the collection period 30-40 min during the preliminary phase, when the excretion of the ^3 H-TCA in the control phase had reached its maximum and plateau. The EC50 (=effective concentration 50) was calculated as the effective concentration between the inhibitory values of different concentrations which inhibited the maximum bile acid excretion by 50%.
On to `CCCC[C@]1(CC)CS(=O)(=O)c2cc(OC)c(OC)cc2[C@@H](c2ccccc2)N1` [Comparison Example 8, reference compound], for which the EC50 (usually the concentration giving half of the maximal effect) came out at 9800 nM.

For the molecule `CCCCC1(CC)CS(=O)(=O)c2ccc(N(C)C)cc2C(c2cccc(NC(=O)[C@H](O)[C@@H](O)[C@H](O)[C@H](O)CO)c2)N1` (some centres unmarked) [Example 1], the half-maximal effective concentration (EC50) stood at 90 nM.

As for `CCCCC1(CC)CS(=O)(=O)c2ccc(N(C)C)cc2C(c2cccc(NC(=O)[C@H](O)[C@@H](O)[C@H](O)[C@H](O)CO)c2)N1O` (some centres unmarked) [Example 2], the EC50 amounted to 150 nM.

Regarding `CCCCC1(CC)CS(=O)(=O)c2ccc(N(C)C)cc2C(c2cccc(NC(=O)CCCCNC[C@H](O)[C@@H](O)[C@H](O)[C@H](O)CO)c2)N1` (some centres unmarked) [Example 3], the EC50 amounted to 220 nM.

Consider `CCCCC1(CC)CS(=O)(=O)c2ccc(N(C)C)cc2C(c2cccc(NC(=O)CCCCCCCCCCNC(=O)[C@H](O)[C@@H](O)[C@H](O)[C@H](O)CO)c2)N1` (some centres unmarked) [Example 4], for which the EC50 was determined as 720 nM.

Consider `CCCCC1(CCCC)CS(=O)(=O)c2ccc(N(C)C)cc2C(c2cccc(NC(=O)[C@H](O)[C@@H](O)[C@H](O)[C@H](O)CO)c2)N1` (some centres unmarked) [Example 5], for which the concentration for a half-maximal effect (EC50) turned out to be 400 nM.

As for `CCCCC1(CCCC)CS(=O)(=O)c2ccc(N(C)C)cc2C(c2cccc(NC(=O)[C@H](O)[C@@H](O)[C@H](O)[C@H](O)CO)c2)N1O` (some centres unmarked) [Example 6], the EC50 was 90 nM.

In the case of `CCCCC1(CCCC)CS(=O)(=O)c2ccc(N(C)C)cc2C(c2cccc(NC(=O)CCCCNC[C@H](O)[C@@H](O)[C@H](O)[C@H](O)CO)c2)N1` (some centres unmarked) [Example 7], the EC50 worked out at 1400 nM.
